Consider three compounds from PMC4457528, “Identification of Novel Small Molecule Inhibitors of Oncogenic RET Kinase” (PLoS ONE, 2015).

Where two headings read alike, the source gives them in different places. Bounds are passed on as bounds.

What all share (assay): KinomeScan kinase panel, single concentration 10 µM
Holding throughout (assay type): binding

In assay [1] the target is T1, KinomeScan kinase panel (Homo sapiens, UniProt Q9H2K8).
T1 construct: purchased DiscoveRx (KinomeScan)
T1 sequence (Q9H2K8 1-898): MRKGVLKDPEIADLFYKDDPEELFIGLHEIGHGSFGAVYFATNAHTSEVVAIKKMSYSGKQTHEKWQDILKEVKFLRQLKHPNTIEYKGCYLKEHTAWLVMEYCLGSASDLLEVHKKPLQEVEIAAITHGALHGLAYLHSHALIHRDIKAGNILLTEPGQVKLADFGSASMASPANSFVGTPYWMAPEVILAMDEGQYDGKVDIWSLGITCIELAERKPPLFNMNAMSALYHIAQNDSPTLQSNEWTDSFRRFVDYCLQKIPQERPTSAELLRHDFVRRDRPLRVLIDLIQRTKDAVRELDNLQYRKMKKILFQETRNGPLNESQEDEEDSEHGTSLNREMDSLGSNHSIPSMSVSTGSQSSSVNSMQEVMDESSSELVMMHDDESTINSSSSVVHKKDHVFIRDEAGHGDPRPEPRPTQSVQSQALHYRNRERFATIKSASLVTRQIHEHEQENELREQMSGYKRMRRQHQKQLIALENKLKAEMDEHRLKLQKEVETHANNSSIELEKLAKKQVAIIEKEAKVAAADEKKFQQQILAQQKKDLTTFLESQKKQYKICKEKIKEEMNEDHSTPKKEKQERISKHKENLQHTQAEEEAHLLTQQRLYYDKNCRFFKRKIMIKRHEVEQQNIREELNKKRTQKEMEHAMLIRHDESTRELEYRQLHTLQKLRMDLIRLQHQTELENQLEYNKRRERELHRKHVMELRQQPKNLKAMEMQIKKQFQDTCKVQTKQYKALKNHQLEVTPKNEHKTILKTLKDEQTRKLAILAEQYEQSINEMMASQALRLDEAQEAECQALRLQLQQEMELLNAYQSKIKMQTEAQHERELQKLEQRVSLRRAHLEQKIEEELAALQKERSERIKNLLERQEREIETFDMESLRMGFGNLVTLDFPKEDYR
The conditions noted are these: read-out: score (%).

The target of assay [2] is T2, KinomeScan kinase panel (Homo sapiens, UniProt Q9UK32).
T2 construct: purchased DiscoveRx (KinomeScan)
Conditions: 10 µM.

The target in assay [3] is T3, KinomeScan kinase panel (Homo sapiens, UniProt O15530).
T3 construct: purchased DiscoveRx (KinomeScan)
T3 sequence (O15530 1-556): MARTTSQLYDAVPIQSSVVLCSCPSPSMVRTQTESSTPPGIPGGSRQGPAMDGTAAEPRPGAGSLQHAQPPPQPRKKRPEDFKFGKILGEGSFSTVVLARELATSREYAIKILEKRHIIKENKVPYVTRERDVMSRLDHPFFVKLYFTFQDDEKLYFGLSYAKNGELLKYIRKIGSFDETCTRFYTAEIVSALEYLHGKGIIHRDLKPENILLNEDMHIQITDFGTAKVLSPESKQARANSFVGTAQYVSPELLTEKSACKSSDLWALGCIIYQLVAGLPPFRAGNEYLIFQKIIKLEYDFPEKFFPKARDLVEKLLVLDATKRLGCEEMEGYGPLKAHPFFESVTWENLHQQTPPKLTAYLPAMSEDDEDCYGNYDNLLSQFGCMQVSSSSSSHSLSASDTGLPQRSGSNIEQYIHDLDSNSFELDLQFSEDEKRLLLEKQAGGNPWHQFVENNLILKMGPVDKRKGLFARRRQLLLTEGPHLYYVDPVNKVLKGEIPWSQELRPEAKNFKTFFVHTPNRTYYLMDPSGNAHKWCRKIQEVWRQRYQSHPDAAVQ
The conditions noted are these: PDPK1, 10 µM; read-out: score (%).

The target of assay [4] is T4, KinomeScan kinase panel (Homo sapiens, UniProt P29320).
T4 construct: purchased DiscoveRx (KinomeScan)
T4 sequence (P29320 21-983): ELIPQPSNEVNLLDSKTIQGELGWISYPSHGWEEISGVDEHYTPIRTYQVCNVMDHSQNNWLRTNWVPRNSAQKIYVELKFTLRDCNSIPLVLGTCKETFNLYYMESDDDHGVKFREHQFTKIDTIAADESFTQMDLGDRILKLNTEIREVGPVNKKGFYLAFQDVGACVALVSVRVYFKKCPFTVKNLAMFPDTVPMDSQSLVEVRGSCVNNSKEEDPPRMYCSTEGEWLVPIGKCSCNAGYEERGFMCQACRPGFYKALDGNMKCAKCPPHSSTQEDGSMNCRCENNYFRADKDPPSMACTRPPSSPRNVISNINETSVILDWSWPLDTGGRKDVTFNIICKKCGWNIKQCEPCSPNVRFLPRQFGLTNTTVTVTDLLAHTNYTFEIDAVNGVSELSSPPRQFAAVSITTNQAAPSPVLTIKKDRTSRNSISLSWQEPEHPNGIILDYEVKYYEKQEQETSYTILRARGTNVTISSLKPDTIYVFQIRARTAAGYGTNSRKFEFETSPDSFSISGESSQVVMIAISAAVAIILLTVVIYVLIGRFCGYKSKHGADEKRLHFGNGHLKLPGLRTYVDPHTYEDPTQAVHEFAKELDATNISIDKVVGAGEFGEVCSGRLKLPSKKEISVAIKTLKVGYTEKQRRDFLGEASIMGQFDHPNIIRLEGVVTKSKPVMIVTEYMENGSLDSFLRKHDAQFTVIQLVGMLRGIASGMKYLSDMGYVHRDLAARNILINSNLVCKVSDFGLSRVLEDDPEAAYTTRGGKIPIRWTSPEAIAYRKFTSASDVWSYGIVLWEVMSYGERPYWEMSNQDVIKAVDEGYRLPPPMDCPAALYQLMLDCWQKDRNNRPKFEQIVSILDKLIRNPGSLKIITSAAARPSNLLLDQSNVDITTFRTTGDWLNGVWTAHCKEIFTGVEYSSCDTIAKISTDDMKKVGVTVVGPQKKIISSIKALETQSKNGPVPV
Conditions: EPHA3, 10 µM; read-out: score (%).

In assay [5] the target is T5, KinomeScan kinase panel (Homo sapiens, UniProt P0C264).
T5 construct: purchased DiscoveRx (KinomeScan)
T5 sequence (P0C264 1-359): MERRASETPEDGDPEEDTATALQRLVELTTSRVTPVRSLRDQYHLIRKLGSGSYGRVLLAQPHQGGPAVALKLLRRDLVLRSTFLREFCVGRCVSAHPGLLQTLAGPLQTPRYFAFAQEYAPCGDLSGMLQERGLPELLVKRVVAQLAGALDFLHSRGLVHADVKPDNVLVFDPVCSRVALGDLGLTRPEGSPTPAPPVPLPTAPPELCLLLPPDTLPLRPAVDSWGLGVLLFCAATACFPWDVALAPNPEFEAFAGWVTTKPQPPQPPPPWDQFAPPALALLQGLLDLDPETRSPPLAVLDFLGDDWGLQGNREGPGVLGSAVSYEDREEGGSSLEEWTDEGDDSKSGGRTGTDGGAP
The conditions noted are these: read-out: score (%).

T2 sequence (Q9UK32 whole entry): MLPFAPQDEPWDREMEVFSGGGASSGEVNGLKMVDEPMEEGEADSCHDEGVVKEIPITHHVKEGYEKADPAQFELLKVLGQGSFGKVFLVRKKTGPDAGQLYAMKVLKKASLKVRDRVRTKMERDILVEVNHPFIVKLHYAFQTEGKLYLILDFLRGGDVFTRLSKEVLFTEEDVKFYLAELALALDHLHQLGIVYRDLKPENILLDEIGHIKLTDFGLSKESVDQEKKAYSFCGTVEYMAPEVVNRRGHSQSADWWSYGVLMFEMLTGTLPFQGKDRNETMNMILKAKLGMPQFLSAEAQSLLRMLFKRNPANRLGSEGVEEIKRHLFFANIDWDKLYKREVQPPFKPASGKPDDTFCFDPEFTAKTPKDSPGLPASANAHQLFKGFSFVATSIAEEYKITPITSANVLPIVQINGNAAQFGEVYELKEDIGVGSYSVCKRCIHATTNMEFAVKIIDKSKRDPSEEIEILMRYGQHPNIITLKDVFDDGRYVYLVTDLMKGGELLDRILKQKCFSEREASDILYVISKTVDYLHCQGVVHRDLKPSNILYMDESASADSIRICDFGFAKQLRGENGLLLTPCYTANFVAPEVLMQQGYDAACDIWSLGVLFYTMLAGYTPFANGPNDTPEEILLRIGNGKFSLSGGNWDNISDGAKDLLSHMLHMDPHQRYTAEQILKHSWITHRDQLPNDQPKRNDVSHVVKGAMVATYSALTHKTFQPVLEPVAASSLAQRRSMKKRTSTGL

`CCN1CCN(Cc2ccc(NC(=O)c3ccc(C)c(NC(=O)c4cncc(-c5cccs5)c4)c3)cc2C(F)(F)F)CC1` [ALW-II-41-27]: the remaining binding at 10 µM in assay [1] (kinase TAOK3, 10 µM) was 2.8%; in assay [3], greater than 30%; in assay [4] it was 7.6%; in assay [5] (kinase SgK110, 10 µM), greater than 30%. For the same compound, the “score (%)” value in assay [2] (kinase RPS6KA6(Kin.Dom.1-N-terminal)) and in assay [2] (kinase RPS6KA6(Kin.Dom.2-C-terminal)) was “nb (Hits values higher than 30% were considered negative (no binding: nb))” each time.

Regarding `CCN1CCN(Cc2ccc(NC(=O)c3ccc(C)c(/C=C/c4cnc5[nH]ccc5c4Cl)c3)cc2C(F)(F)F)CC1` [HG-6-63-01, (E)-3-(2-(4-chloro-1H-pyrrolo[2,3-b]pyridin-5-yl)vinyl)-N-(4-((4-ethylpiperazin-1-yl)methyl)-3-(trifluoromethyl)phenyl)-4-methylbenzamide], the remaining binding at 10 µM in assay [1] (TAOK3, 10 µM) was 0.1%; in assay [3], greater than 30%; in assay [4], 11%; in assay [5] (SgK110, 10 µM) it was 29%. The “score (%)” value in assay [2] (RPS6KA6(Kin.Dom.1)) and in assay [2] (RPS6KA6(Kin.Dom.2)) was “nb (Hits values higher than 30% were considered negative (no binding: nb))” each time.

Take `CCN1CCN(Cc2ccc(NC(=O)c3ccc(C)c(C#Cc4cccnc4)c3)cc2C(F)(F)F)CC1` [XMD15-44]: the remaining binding at 10 µM in assay [1] (kinase TAOK3, 10 µM) was 0%; in assay [3] it was 84%; in assay [4] it was 0.85%; in assay [5] (kinase SgK110, 10 µM), 100%. Also, the “score (%)” value in assay [2] (kinase RSK4(Kin.Dom.1-N-terminal)) is reported as 47%; in assay [2] (kinase RSK4(Kin.Dom.2-C-terminal)) it was 6.8%.
